pIC50: −log10 of the molar value. Read-outs that look alike come from different tables or passages of the source. Starred links: 1 amine or outer side, 2 acyl side, 3 side chain; linkers in the order of their positions; H or OH if unused. Non-standard residues stand in square brackets, D forms with d. Residues, ends and D or L forms follow the SMILES beside them. X26 = C[C@H](CN1CCn2c(nnc2C(F)(F)F)C1)[C@@H](C(=O)[*:2])N(C)[*:1]; X31 = C[C@H](CN1C[C@H](C)OC[C@@H]1C)[C@@H](C(=O)[*:2])N(C)[*:1]; X48 = C[C@@H](CN1CCN(S(C)(=O)=O)CC1)[C@@H](C(=O)[*:2])N(C)[*:1]; X37 = C[C@H](CN1CCC(S(C)(=O)=O)CC1)[C@@H](C(=O)[*:2])N(C)[*:1]; X54 = CCOC(=O)N1CCN(C[C@@H](C)[C@@H](C(=O)[*:2])N(C)[*:1])CC1; X70 = C[C@H](CCCOC(=O)N1CCN(C)CC1)[C@@H](C(=O)[*:2])N(C)[*:1]; X38 = C[C@@H](CN1CCN2C(=O)OCC2C1)[C@@H](C(=O)[*:2])N(C)[*:1]; X49 = C[C@H](CCC(=O)N1CCN(C)CC1)[C@@H](C(=O)[*:2])N(C)[*:1]; X34 = C[C@H](COC(=O)N1CCOCC1)[C@@H](C(=O)[*:2])N(C)[*:1]; X50 = C[C@H](CN1CCNC(=O)C1)[C@@H](C(=O)[*:2])N(C)[*:1]; MeBmt = C/C=C/C[C@@H](C)[C@@H](O)[C@H](NC)C(=O)O; NMeL = CN[C@@H](CC(C)C)C(=O)O; NMeV = CN[C@H](C(=O)O)C(C)C; dNMeA = CN[C@H](C)C(=O)O; Abu = CC[C@H](N)C(=O)O
Tests used:
[1] = target: cyclophilin A (CypA) (Homo sapiens (Human), UniProt P62937); experiment: Inhibitor binding to cyclophilin proteins by SPR, CypA; set-up: unit not given here; conditions: 1:1 binding model;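 further: Single-cycle kinetics on a Biacore T200, compound injected at several concentrations for 1 min each at 50 µL/min, then 10 min dissociation, in HEPES pH 7.4 buffer with 3% DMSO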
[2] = target: cyclophilin B (CypB) (Homo sapiens (Human), UniProt P23284); experiment: Inhibitor binding to cyclophilin proteins by SPR, CypB; set-up: unit not given here; conditions: 1:1 binding model
In short: (§1)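 Running buffer: 10 mM HEPES pH 7.4, 150 mM NaCl, 0.05% P20, 3% DMSO, with compound present. Capture of avi-tagged mono-biotinylated cyclophilin; single-cycle series, 1 min contact, 10 min dissociation. Rates and affinity fitted to a 1:1 interaction model.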

[3] = target: CypF (Homo sapiens (Human), UniProt P30405); experiment: Inhibitor binding to cyclophilin proteins by SPR, CypF; conditions: 1:1 binding model
In short: as §1

[4] = test system: genotype 1b subgenomic HCV replicon in Huh7.5 cells; type: cell-based, hepatitis C virus; conditions: read-out: RPLN-1b IC50
In short: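 Replicon inhibition read as renilla luciferase signal versus DMSO controls after 72 h incubation, in Huh7.5 cells harbouring a genotype 1b subgenomic replicon; medium phenol red-free DMEM lacking G418. CC50 determined in parallel via Cell Titer-Glo.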

[5] = test system: peripheral blood mononuclear cells (PBMC); experiment: Anti-proliferative or immunosuppressive activity, BrdU incorporation in PHA-stimulated PBMC; type: cell-based; conditions: PHA 3 μg/ml, 60 hour compound treatment; read-out: EMV PBMC IC50
In short: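 BrdU ELISA read-out of DNA synthesis in freshly isolated PBMCs (two donors, 30,000 cells/well, X-VIVO 15). T-cell proliferation triggered with phytohemagglutinin at 3 μg/ml.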

[6] = target: organic anion transporting polypeptide 1B1 (OATP1B1) (Homo sapiens (Human), UniProt Q9Y6L6); experiment: OATP assay in CHO-OATP1B1 cells;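 further: inhibition of probe substrate uptake into the cells, ten minutes exposure, accumulated substrate read by fluorescence once cells were lysed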
[7] = genotype 1b replicon, 72 h incubation

Chain of cyclophilin B (CypB) (P23284 34-216): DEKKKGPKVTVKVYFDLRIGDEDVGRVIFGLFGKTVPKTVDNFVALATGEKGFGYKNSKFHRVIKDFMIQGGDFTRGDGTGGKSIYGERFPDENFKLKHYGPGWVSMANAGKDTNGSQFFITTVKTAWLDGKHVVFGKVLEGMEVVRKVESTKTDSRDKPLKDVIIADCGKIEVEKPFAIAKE
Chain of organic anion transporting polypeptide 1B1 (OATP1B1) (Q9Y6L6 whole entry): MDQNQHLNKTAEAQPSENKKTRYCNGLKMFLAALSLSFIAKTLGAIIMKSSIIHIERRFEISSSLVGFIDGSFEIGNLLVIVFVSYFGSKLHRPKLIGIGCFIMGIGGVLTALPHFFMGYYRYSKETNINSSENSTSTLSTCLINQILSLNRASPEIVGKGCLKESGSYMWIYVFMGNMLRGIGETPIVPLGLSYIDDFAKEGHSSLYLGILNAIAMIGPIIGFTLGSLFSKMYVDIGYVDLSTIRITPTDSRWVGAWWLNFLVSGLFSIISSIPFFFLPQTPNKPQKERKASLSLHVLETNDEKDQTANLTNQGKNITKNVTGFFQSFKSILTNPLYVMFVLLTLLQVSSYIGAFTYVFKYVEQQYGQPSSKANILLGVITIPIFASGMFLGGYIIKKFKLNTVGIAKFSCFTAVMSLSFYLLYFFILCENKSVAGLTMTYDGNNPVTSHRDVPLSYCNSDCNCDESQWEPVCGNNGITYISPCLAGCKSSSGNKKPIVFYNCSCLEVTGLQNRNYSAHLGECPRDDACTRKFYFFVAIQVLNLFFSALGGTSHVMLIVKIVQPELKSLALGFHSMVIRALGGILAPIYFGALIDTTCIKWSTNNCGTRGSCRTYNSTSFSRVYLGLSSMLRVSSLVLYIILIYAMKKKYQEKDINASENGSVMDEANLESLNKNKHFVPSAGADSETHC
Chain of CypF (P30405 30-207): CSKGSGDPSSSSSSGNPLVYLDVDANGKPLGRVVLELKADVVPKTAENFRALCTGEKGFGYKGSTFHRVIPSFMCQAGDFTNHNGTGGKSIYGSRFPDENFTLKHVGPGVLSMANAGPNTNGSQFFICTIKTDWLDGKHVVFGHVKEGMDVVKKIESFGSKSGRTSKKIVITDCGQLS
Chain of cyclophilin A (CypA) (P62937 whole entry): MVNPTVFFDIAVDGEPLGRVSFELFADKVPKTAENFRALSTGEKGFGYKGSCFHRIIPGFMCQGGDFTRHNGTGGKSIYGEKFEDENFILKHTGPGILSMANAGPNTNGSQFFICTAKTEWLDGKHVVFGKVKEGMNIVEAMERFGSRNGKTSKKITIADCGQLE

Compound | CypA Kd [1] | CypB Kd [2] | CypF Kd [3] [nM] | pIC50 [4, 7] | pIC50 [5] | pIC50 [6] | pIC50 [4]
C/C=C/C[C@@H](C)[C@@H](O)[C@H]1C(=O)N[C@@H](CC)C(=O)N(C)[C@H](C)C(=O)N(C)[C@@H]([C@H](C)CN2CCN(C(=O)OCC)CC2)C(=O)N[C@@H](C(C)C)C(=O)N(C)[C@@H](CC(C)C)C(=O)N[C@@H](C)C(=O)N[C@H](C)C(=O)N(C)[C@@H](CC(C)C)C(=O)N(C)[C@@H](CC(C)C)C(=O)N(C)[C@@H](C(C)C)C(=O)N1C [Compound 2.5.31, 3-[D-Ala]-4-[(2S,3R)-4-(4-(ethoxycarbonyl)piperazin-1-yl)-3-methyl-2-(methylamino)butanoyl]-cyclosporin] (cyclo(A[dA][NMeL][NMeL][NMeV][MeBmt][Abu][dNMeA][X54]V[NMeL])) | 2.5 | 1.1 | 1.3 | 7.26 | 4.72 | 5.68 | –
C/C=C/C[C@@H](C)[C@@H](O)[C@H]1C(=O)N[C@@H](CC)C(=O)N(C)[C@H](C)C(=O)N(C)[C@@H]([C@@H](C)CN2CCN3C(=O)OCC3C2)C(=O)N[C@@H](C(C)C)C(=O)N(C)[C@@H](CC(C)C)C(=O)N[C@@H](C)C(=O)N[C@H](C)C(=O)N(C)[C@@H](CC(C)C)C(=O)N(C)[C@@H](CC(C)C)C(=O)N(C)[C@@H](C(C)C)C(=O)N1C (stereo partly drawn) [Compound 2.17.10, 3-[D-Ala]-4-[(2S,3S)-3-methyl-2-(methylamino)-4-((S)-3-oxotetrahydro-1H-oxazolo[3,4-a]pyrazin-7(3H)-yl)butanoyl]-cyclosporin] (cyclo(A[dA][NMeL][NMeL][NMeV][MeBmt][Abu][dNMeA][X38]V[NMeL])) | 0.6 | 0.5 | 0.4 | 7.51 | 4.82 | 5.85 | –
C/C=C/C[C@@H](C)[C@@H](O)[C@H]1C(=O)N[C@@H](CC)C(=O)N(C)[C@H](C)C(=O)N(C)[C@@H]([C@H](C)CN2CCn3c(nnc3C(F)(F)F)C2)C(=O)N[C@@H](C(C)C)C(=O)N(C)[C@@H](CC(C)C)C(=O)N[C@@H](C)C(=O)N[C@H](C)C(=O)N(C)[C@@H](CC(C)C)C(=O)N(C)[C@@H](CC(C)C)C(=O)N(C)[C@@H](C(C)C)C(=O)N1C [Compound 2.5.19, 3-[D-Ala]-4-[(2S,3R)-3-methyl-2-(methylamino)-4-(3-(trifluoromethyl)-5,6-dihydro-[1,2,4]triazolo[4,3-a]pyrazin-7(8H)-yl)butanoyl]-cyclosporin] (cyclo(A[dA][NMeL][NMeL][NMeV][MeBmt][Abu][dNMeA][X26]V[NMeL])) | 2.8 | 1.2 | 1.6 | 7.12 | 4.90 | 6.00 | –
C/C=C/C[C@@H](C)[C@@H](O)[C@H]1C(=O)N[C@@H](CC)C(=O)N(C)[C@H](C)C(=O)N(C)[C@@H]([C@H](C)CCCOC(=O)N2CCN(C)CC2)C(=O)N[C@@H](C(C)C)C(=O)N(C)[C@@H](CC(C)C)C(=O)N[C@@H](C)C(=O)N[C@H](C)C(=O)N(C)[C@@H](CC(C)C)C(=O)N(C)[C@@H](CC(C)C)C(=O)N(C)[C@@H](C(C)C)C(=O)N1C [Compound 2.19.7, 3-[D-Ala]-4-[(2S,3R)-3-methyl-2-(methylamino)-6-((4-methylpiperazine-1-carbonyl)oxy)hexanoyl]-cyclosporin] (cyclo(A[dA][NMeL][NMeL][NMeV][MeBmt][Abu][dNMeA][X70]V[NMeL])) | 1.1 | 0.7 | 0.7 | 7.96 | 4.80 | 5.54 | –
C/C=C/C[C@@H](C)[C@@H](O)[C@H]1C(=O)N[C@@H](CC)C(=O)N(C)[C@H](C)C(=O)N(C)[C@@H]([C@@H](C)CN2CCN(S(C)(=O)=O)CC2)C(=O)N[C@@H](C(C)C)C(=O)N(C)[C@@H](CC(C)C)C(=O)N[C@@H](C)C(=O)N[C@H](C)C(=O)N(C)[C@@H](CC(C)C)C(=O)N(C)[C@@H](CC(C)C)C(=O)N(C)[C@@H](C(C)C)C(=O)N1C [Compound 2.17.9, 3-[D-Ala]-4-[(2S,3S)-3-methyl-2-(methylamino)-4-(4-(methylsulfonyl)piperazin-1-yl)butanoyl]-cyclosporin] (cyclo(A[dA][NMeL][NMeL][NMeV][MeBmt][Abu][dNMeA][X48]V[NMeL])) | 0.9 | 0.6 | 0.5 | 7.64 | 4.50 | 6.40 | –
C/C=C/C[C@@H](C)[C@@H](O)[C@H]1C(=O)N[C@@H](CC)C(=O)N(C)[C@H](C(C)C)C(=O)N(C)C([C@H](C)COC)C(=O)N[C@@H](C(C)C)C(=O)N(C)[C@@H](CC(C)C)C(=O)N[C@@H](C)C(=O)N[C@H](C)C(=O)N(C)[C@@H](CC(C)C)C(=O)N(C)[C@@H](CC(C)C)C(=O)N(C)[C@@H](C(C)C)C(=O)N1C (stereo in doubt) [Compound 3.3, 3-[(R)-3-methyl-2-(methylamino)butanoyl]-4-[(2S,3S)-4-methoxy-3-methyl-2-(methylamino)butanoyl]-cyclosporin] | 13.7 | 7.4 | 8.2 | – | 4.88 | 5.70 | 7.00
C/C=C/C[C@@H](C)[C@@H](O)[C@H]1C(=O)N[C@@H](CC)C(=O)N(C)[C@H](C)C(=O)N(C)[C@@H]([C@H](C)COC(=O)N2CCOCC2)C(=O)N[C@@H](C(C)C)C(=O)N(C)[C@@H](CC(C)C)C(=O)N[C@@H](C)C(=O)N[C@H](C)C(=O)N(C)[C@@H](CC(C)C)C(=O)N(C)[C@@H](CC(C)C)C(=O)N(C)[C@@H](C(C)C)C(=O)N1C [Compound 2.5.7, 3-[D-Ala]-4-[(2S,3S)-3-methyl-2-(methylamino)-4-((morpholine-4-carbonyl)oxy)butanoyl]-cyclosporin] (cyclo([MeBmt][Abu][dNMeA][X34]V[NMeL]A[dA][NMeL][NMeL][NMeV])) | 2.1 | 1.3 | 1.5 | – | 4.71 | 5.64 | 7.32
C/C=C/C[C@@H](C)[C@@H](O)[C@H]1C(=O)N[C@@H](CC)C(=O)N(C)[C@H](C)C(=O)N(C)[C@@H]([C@H](C)CN2CCNC(=O)C2)C(=O)N[C@@H](C(C)C)C(=O)N(C)[C@@H](CC(C)C)C(=O)N[C@@H](C)C(=O)N[C@H](C)C(=O)N(C)[C@@H](CC(C)C)C(=O)N(C)[C@@H](CC(C)C)C(=O)N(C)[C@@H](C(C)C)C(=O)N1C [Compound 2.5.30, 3-[D-Ala]-4-[(2S,3R)-3-methyl-2-(methylamino)-4-(3-oxopiperazin-1-yl)butanoyl]-cyclosporin] (cyclo(A[dA][NMeL][NMeL][NMeV][MeBmt][Abu][dNMeA][X50]V[NMeL])) | 1.7 | 1.0 | 1.1 | 6.69 | 4.47 | 5.68 | –
C/C=C/C[C@@H](C)[C@@H](O)[C@H]1C(=O)N[C@@H](CC)C(=O)N(C)[C@H](C)C(=O)N(C)[C@@H]([C@H](C)CN2C[C@H](C)OC[C@@H]2C)C(=O)N[C@@H](C(C)C)C(=O)N(C)[C@@H](CC(C)C)C(=O)N[C@@H](C)C(=O)N[C@H](C)C(=O)N(C)[C@@H](CC(C)C)C(=O)N(C)[C@@H](CC(C)C)C(=O)N(C)[C@@H](C(C)C)C(=O)N1C [Compound 2.5.6, 3-[D-Ala]-4-[(2S,3R)-4-((2S,5S)-2,5-dimethylmorpholino)-3-methyl-2-(methylamino)butanoyl]-cyclosporin] (cyclo(A[dA][NMeL][NMeL][NMeV][MeBmt][Abu][dNMeA][X31]V[NMeL])) | 5.0 | 2.7 | 2.5 | 7.46 | 5.47 | 5.59 | –
C/C=C/C[C@@H](C)[C@@H](O)[C@H]1C(=O)N[C@@H](CC)C(=O)N(C)[C@H](C)C(=O)N(C)[C@@H]([C@H](C)CCC(=O)N2CCN(C)CC2)C(=O)N[C@@H](C(C)C)C(=O)N(C)[C@@H](CC(C)C)C(=O)N[C@@H](C)C(=O)N[C@H](C)C(=O)N(C)[C@@H](CC(C)C)C(=O)N(C)[C@@H](CC(C)C)C(=O)N(C)[C@@H](C(C)C)C(=O)N1C [Compound 2.14.3, 3-[D-Ala]-4-[(2S,3R)-3-methyl-2-(methylamino)-6-(4-methylpiperazin-1-yl)-6-oxohexanoyl]-cyclosporin] (cyclo(A[dA][NMeL][NMeL][NMeV][MeBmt][Abu][dNMeA][X49]V[NMeL])) | 2.0 | 0.9 | 0.9 | 6.72 | 4.85 | 5.27 | –
C/C=C/C[C@@H](C)[C@@H](O)[C@H]1C(=O)N[C@@H](CC)C(=O)N(C)[C@H](C)C(=O)N(C)[C@@H]([C@H](C)CN2CCC(S(C)(=O)=O)CC2)C(=O)N[C@@H](C(C)C)C(=O)N(C)[C@@H](CC(C)C)C(=O)N[C@@H](C)C(=O)N[C@H](C)C(=O)N(C)[C@@H](CC(C)C)C(=O)N(C)[C@@H](CC(C)C)C(=O)N(C)[C@@H](C(C)C)C(=O)N1C [Compound 2.5.20, 3-[D-Ala]-4-[(2S,3R)-3-methyl-2-(methylamino)-4-(4-(methylsulfonyl)piperidin-1-yl)butanoyl]-cyclosporin] (cyclo(A[dA][NMeL][NMeL][NMeV][MeBmt][Abu][dNMeA][X37]V[NMeL])) | 3.7 | 1.2 | 1.6 | 6.96 | 4.53 | 5.74 | –

From patent publication US9566312B2, “Cyclic peptides and use as medicines” (priority 2012, dated 2017)
